Measurements from patent US8883130B2, “Transparent antiperspirant gels” (Henkel AG & Co. KGaA, priority 2008, dated 2014).

Test: Emulsion stability with silicone-free water-in-oil emulsifiers
Assay type: physicochemical

stability of the emulsion: did not yield stable emulsions
Substance: Laureth-2
